Experimental data reported in patent US20250295777A1, “HOMEOPATHIC PHARMACEUTICAL COMPOSITION FOR TREATING UPPER AND LOWER RESPIRATORY TRACT DISEASES” (priority 2022, published 2025).
Where a name gives a salt, the structure may show the parent alone. Read-outs that look alike come from different tables or passages of the source.

Assays:
[1] = test system: ciliated epithelium (upper respiratory tract epithelium cilia); conditions: cited from earlier work
[2] = test system: upper respiratory tract ciliated epithelium; test: lifespan of the ciliated epithelium cilia / cell survival time in vitro (test sample vs isotonic NaCl control); format: cell-based, human (patients)
Description: (§1) To determine the efficiency of mucociliary clearance, the authors of the present invention measured the frequency (Frequency) and period (Time) of the upper respiratory tract ciliated epithelium cilia beating using methods for determining these parameters that are well known to persons skilled in the art and have been repeatedly described in the prior art. The authors of the invention took into account that sufficient functioning of the ciliated epithelium cilia is the most important parameter of the effectiveness of mucociliary clearance (Duchateau G S M J E, Graamans K., Zuidema J., Merkus F W H M.—Laryngoscope 1985; 95:854-859), and, therefore, they measured the percentage of ciliated epithelium cells with motile cilia (Movement). Non-limiting (illustrative) examples of methods for determining the parameters of the upper respiratory tract ciliated epithelium cilia beating are given in V. V. Shabalin et al., Biophysical Methods for Studying Mucociliary Transport of the Normal and Pathological Upper and Lower Respiratory Tract.—See in Problems of Therapeutic and Surgical Pulmonology, collection of conference materials, Saint Petersburg, 1997, pp. 44-45.
(§2) The effect of the composition of the invention on the performance of the ciliated epithelium cilia and the lifespan of the ciliated epithelium was studied in comparison with separate components (Apis mellifica, Eupharsia officinalis, Allium cepa, Tatrarus stibiatus, Hepar sulphur, and Arnica montana separately), with the composition according to patent RU 2748548 and with an isotonic NaCl solution (0.9% solution).
(§3) The study included patients with acute and chronic rhinosinusitis, as well as patients without a history of otolaryngological disorders.
(§4) It is well known to persons skilled in the art that the optimal medium for the ciliated epithelium functioning is a saline (0.9% NaCl solution) and that this medium allows the ciliated epithelium cells to move synchronously and live the longest; therefore, ciliated epithelium treated with a saline was used as a control.
(§5) The results include the following parameters: • Frequency 1, Hz—the beating frequency of the ciliated epithelium cilia in the test sample, • Frequency 2, Hz—the beating frequency of the ciliated epithelium cilia in the control (isotonic NaCl solution), • Time 1, min—lifespan of the ciliated epithelium cilia in the test sample, • Time 2, min—lifespan of the ciliated epithelium cilia in the control.

[3] = test system: upper respiratory tract ciliated epithelium cilia; test: beating frequency of the ciliated epithelium cilia (in vitro, test sample vs isotonic NaCl control); format: cell-based, human (patients)
Description: as §1, §2, §3, §4, §5

[4] = average values over 5 patients / dilutions D3-C30
[5] = dilution C3, single patient sample
[6] = dilution C6, single patient sample
[7] = dilution C30, single patient sample
[8] = dilution D3, single patient sample
[9] = dilution D6, single patient sample

Question: With `Cc1cc(C(C)(C)C)cc(C)c1CC1=NCCN1` [xylometazoline hydrochloride] as the compound, how does the “ciliary beat frequency (CBF) reduced by” value ([1]; 0.1% solution) read?
Answer: 69%

Question: Which “ciliary beat frequency (CBF) reduced by” value [1] does the source give for `C[C@@H]1CN([C@H]2CC[C@](C#N)(c3ccc(F)cc3)CC2)CC[C@]1(C(=O)O)c1ccccc1` [levocabastine] here?
Answer: 13%

Question: What does the source list for `O.O.O.O=C([O-])[C@H]([O-])[C@@H]([O-])C(=O)[O-].O=C([O-])[C@H]([O-])[C@@H]([O-])C(=O)[O-].[K+].[K+].[Sb+3].[Sb+3]` [Tartarus stibiatus, tartrate of antimony and potassium]?
Answer: Time 1, min (lifespan of the ciliated epithelium cilia in the test sample) [2, 4]: 24.6 min; Time 1, min (lifespan of the ciliated epithelium cilia in the test sample) [2, 5]: 28 min; Time 1, min (lifespan of the ciliated epithelium cilia in the test sample) [2, 6]: 20 min; Time 1, min (lifespan of the ciliated epithelium cilia in the test sample) [2, 7]: 28 min; Time 1, min (lifespan of the ciliated epithelium cilia in the test sample) [2, 8]: 27 min; Time 1, min (lifespan of the ciliated epithelium cilia in the test sample) [2, 9]: 20 min; Frequency 1, Hz (beating frequency of the ciliated epithelium cilia in the test sample) [3, 4]: 5.2134 Hz; Frequency 1, Hz (beating frequency of the ciliated epithelium cilia in the test sample) [3, 5]: 6.503 Hz; Frequency 1, Hz (beating frequency of the ciliated epithelium cilia in the test sample) [3, 6]: 5.283 Hz; Frequency 1, Hz (beating frequency of the ciliated epithelium cilia in the test sample) [3, 7]: 4.092 Hz; Frequency 1, Hz (beating frequency of the ciliated epithelium cilia in the test sample) [3, 8]: 5.177 Hz; Frequency 1, Hz (beating frequency of the ciliated epithelium cilia in the test sample) [3, 9]: 5.012 Hz

Question: With `CC(C)(O)C(Cl)(Cl)Cl` [chlorbutol] as the compound, how does the “ciliary beat frequency (CBF) reduced by” value [1] read?
Answer: 100%

Question: With neomycin as the compound, how does the “ciliary beat frequency (CBF) reduced by” value [1] read?
Answer: 82%

Question: For `C[CH2][Hg][S]c1ccccc1C(=O)[O-].[Na+]` [thiomersal], which “ciliary beat frequency (CBF) reduced by” value [1] is on record?
Answer: 100%
